biological target: T1, 5-hydroxytryptamine receptor 1A (Rattus norvegicus, UniProt P19327); assay type: cell membranes, CHO-K1, Membrane; settings: cho-k1; also: in other assays of this panel Not Active means under 50% inhibition at 10 µM
T1 sequence (P19327 whole entry): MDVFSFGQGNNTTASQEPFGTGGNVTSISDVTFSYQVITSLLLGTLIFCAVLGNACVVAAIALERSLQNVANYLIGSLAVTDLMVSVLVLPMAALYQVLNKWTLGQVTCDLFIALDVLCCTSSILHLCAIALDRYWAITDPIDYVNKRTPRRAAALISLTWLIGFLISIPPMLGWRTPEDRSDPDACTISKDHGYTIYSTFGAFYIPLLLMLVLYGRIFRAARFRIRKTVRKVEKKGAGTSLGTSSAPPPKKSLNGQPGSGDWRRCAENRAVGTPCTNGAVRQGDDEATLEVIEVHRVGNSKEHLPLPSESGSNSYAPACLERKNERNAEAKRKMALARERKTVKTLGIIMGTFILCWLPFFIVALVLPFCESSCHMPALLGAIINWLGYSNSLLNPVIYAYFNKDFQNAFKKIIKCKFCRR

SMILES | IC50
Nn1nnc2ccccc21 | Not Active
CC[C@]1(O)CC[C@H]2[C@@H]3CCC4=CCCC[C@@H]4[C@H]3CC[C@@]21C | Not Active
N[C@@H](Cc1ccc(F)cc1)C(=O)O | Not Active
CCOC(=O)[C@H](CCc1ccccc1)N[C@@H](C)C(=O)N1Cc2ccccc2C[C@H]1C(=O)O | Not Active
O=C(c1ccccc1Cl)N1CCC(Cc2ccccc2)CC1 | Not Active
CCOC(=O)[C@H](CCc1ccccc1)N[C@@H](C)C(=O)N1CCC[C@H]1C(=O)O | Not Active
Clc1cc2c(cc1Cl)Oc1cc(Cl)c(Cl)cc1O2 [2,3,7,8-TETRACHLORODIBENZO-P-DIOXIN] | Not Active
C=C1/C(=C\C=C2/CCC[C@]3(C)[C@@H]([C@H](C)CCCC(C)C)CC[C@@H]23)C[C@@H](O)C[C@@H]1O [ALFACALCIDOL] | Not Active
CCCCCC[C@H]1C(=O)O[C@H](C)[C@H](NC(=O)c2cccc(NC=O)c2O)C(=O)O[C@@H](C)[C@@H]1OC(=O)CC(C)C [ANTIMYCIN A] | Not Active
C[C@@H]1CC[C@H]2[C@@H](C)C(=O)O[C@@H]3O[C@@]4(C)CC[C@@H]1[C@]32OO4 [ARTEMISININ] | Not Active

biological target: Insulin receptor (Rattus norvegicus, UniProt P15127); assay type: cell membranes, Wistar, Liver, Membrane; settings: not given; also: in other assays of this panel Not Active means under 50% inhibition at 10 µM
Sequence (P15127 27-759 limits assumed): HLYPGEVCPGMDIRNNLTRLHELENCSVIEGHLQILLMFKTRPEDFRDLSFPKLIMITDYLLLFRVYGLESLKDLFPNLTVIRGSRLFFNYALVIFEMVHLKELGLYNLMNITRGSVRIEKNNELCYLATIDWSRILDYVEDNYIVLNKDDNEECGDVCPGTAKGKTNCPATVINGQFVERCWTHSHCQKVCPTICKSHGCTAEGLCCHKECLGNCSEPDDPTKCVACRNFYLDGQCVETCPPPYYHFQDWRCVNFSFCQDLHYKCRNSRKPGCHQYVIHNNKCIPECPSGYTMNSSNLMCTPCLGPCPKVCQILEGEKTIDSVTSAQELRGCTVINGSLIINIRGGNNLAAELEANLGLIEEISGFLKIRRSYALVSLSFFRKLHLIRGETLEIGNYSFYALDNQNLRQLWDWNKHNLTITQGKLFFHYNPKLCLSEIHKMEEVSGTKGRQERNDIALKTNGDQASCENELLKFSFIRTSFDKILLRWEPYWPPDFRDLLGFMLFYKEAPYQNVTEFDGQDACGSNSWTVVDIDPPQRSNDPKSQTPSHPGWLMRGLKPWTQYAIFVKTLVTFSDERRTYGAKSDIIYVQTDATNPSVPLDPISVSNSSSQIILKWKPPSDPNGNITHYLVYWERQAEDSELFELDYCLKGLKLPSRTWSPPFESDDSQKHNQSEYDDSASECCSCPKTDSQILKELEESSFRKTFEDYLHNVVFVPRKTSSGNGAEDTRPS
Sequence (P15127 764-1383 limits assumed): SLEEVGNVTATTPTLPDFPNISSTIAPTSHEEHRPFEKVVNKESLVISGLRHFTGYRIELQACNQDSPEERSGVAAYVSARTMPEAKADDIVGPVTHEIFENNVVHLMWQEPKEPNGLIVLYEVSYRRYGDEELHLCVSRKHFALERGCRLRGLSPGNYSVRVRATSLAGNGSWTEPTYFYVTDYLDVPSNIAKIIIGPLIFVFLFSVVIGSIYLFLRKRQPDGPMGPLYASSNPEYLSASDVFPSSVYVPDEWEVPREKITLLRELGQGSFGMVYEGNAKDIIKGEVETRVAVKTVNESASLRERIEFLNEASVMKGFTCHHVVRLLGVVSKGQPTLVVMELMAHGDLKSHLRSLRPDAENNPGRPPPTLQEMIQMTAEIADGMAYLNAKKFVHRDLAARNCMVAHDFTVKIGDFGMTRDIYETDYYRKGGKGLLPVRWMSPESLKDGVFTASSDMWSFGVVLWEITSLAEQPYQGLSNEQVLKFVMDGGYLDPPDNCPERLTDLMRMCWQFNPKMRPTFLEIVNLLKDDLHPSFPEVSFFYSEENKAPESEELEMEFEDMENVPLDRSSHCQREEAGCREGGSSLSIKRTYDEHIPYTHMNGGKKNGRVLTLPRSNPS

SMILES | IC50
Nn1nnc2ccccc21 | Not Active
CC[C@]1(O)CC[C@H]2[C@@H]3CCC4=CCCC[C@@H]4[C@H]3CC[C@@]21C | Not Active
N[C@@H](Cc1ccc(F)cc1)C(=O)O | Not Active
CCOC(=O)[C@H](CCc1ccccc1)N[C@@H](C)C(=O)N1Cc2ccccc2C[C@H]1C(=O)O | Not Active
O=C(c1ccccc1Cl)N1CCC(Cc2ccccc2)CC1 | Not Active
CCOC(=O)[C@H](CCc1ccccc1)N[C@@H](C)C(=O)N1CCC[C@H]1C(=O)O | Not Active
Clc1cc2c(cc1Cl)Oc1cc(Cl)c(Cl)cc1O2 [2,3,7,8-TETRACHLORODIBENZO-P-DIOXIN] | Not Active
C=C1/C(=C\C=C2/CCC[C@]3(C)[C@@H]([C@H](C)CCCC(C)C)CC[C@@H]23)C[C@@H](O)C[C@@H]1O [ALFACALCIDOL] | Not Active
CCCCCC[C@H]1C(=O)O[C@H](C)[C@H](NC(=O)c2cccc(NC=O)c2O)C(=O)O[C@@H](C)[C@@H]1OC(=O)CC(C)C [ANTIMYCIN A] | Not Active
C[C@@H]1CC[C@H]2[C@@H](C)C(=O)O[C@@H]3O[C@@]4(C)CC[C@@H]1[C@]32OO4 [ARTEMISININ] | Not Active

biological target: T2, Cytochrome P450 1A2 (Homo sapiens, UniProt P05177); settings: bti-tn-5b1-4; also: in other assays of this panel Not Active means under 50% inhibition at 10 µM
T2 sequence (P05177 whole entry): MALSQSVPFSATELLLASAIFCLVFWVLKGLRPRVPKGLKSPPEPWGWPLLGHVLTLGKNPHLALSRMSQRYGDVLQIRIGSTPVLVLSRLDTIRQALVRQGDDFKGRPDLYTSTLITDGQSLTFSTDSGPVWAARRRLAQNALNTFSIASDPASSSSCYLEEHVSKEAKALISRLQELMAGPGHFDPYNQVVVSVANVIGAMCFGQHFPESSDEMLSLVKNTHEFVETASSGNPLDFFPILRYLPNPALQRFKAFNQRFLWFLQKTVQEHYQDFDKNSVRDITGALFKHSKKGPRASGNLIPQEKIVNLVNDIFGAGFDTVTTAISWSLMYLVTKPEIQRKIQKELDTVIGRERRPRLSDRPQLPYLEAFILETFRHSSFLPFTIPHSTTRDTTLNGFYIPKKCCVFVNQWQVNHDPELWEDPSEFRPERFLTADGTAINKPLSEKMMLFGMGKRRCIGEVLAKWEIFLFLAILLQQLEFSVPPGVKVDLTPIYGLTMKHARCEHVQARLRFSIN

SMILES | IC50 | Ki
Nn1nnc2ccccc21 | Not Active | Not Active
CC[C@]1(O)CC[C@H]2[C@@H]3CCC4=CCCC[C@@H]4[C@H]3CC[C@@]21C | Not Active | Not Active
CCOC(=O)[C@H](CCc1ccccc1)N[C@@H](C)C(=O)N1Cc2ccccc2C[C@H]1C(=O)O | Not Active | Not Active
O=C(c1ccccc1Cl)N1CCC(Cc2ccccc2)CC1 | Not Active | Not Active
CCOC(=O)[C@H](CCc1ccccc1)N[C@@H](C)C(=O)N1CCC[C@H]1C(=O)O | Not Active | Not Active
Clc1cc2c(cc1Cl)Oc1cc(Cl)c(Cl)cc1O2 [2,3,7,8-TETRACHLORODIBENZO-P-DIOXIN] | Not Active | Not Active
C=C1/C(=C\C=C2/CCC[C@]3(C)[C@@H]([C@H](C)CCCC(C)C)CC[C@@H]23)C[C@@H](O)C[C@@H]1O [ALFACALCIDOL] | Not Active | Not Active
CCCCCC[C@H]1C(=O)O[C@H](C)[C@H](NC(=O)c2cccc(NC=O)c2O)C(=O)O[C@@H](C)[C@@H]1OC(=O)CC(C)C [ANTIMYCIN A] | Not Active | Not Active

biological target: Sigma non-opioid intracellular receptor 1 (Homo sapiens, UniProt Q99720); assay: DRUGMATRIX: Sigma1 radioligand binding (ligand: [3H] Haloperidol); assay type: cell membranes, Jurkat, Membrane; settings: jurkat; Not Active = under 50% inhibition at 10 µM
Sequence (Q99720 whole entry): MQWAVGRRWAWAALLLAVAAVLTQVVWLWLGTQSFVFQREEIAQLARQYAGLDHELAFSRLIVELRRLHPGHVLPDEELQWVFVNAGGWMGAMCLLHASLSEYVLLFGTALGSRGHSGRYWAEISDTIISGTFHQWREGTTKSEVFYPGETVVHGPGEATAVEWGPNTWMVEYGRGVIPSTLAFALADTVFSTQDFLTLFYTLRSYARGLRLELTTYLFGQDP

SMILES | IC50
Nn1nnc2ccccc21 | Not Active
CC[C@]1(O)CC[C@H]2[C@@H]3CCC4=CCCC[C@@H]4[C@H]3CC[C@@]21C | Not Active
N[C@@H](Cc1ccc(F)cc1)C(=O)O | Not Active
CCOC(=O)[C@H](CCc1ccccc1)N[C@@H](C)C(=O)N1Cc2ccccc2C[C@H]1C(=O)O | Not Active
O=C(c1ccccc1Cl)N1CCC(Cc2ccccc2)CC1 | Not Active
CCOC(=O)[C@H](CCc1ccccc1)N[C@@H](C)C(=O)N1CCC[C@H]1C(=O)O | Not Active
Clc1cc2c(cc1Cl)Oc1cc(Cl)c(Cl)cc1O2 [2,3,7,8-TETRACHLORODIBENZO-P-DIOXIN] | Not Active
C=C1/C(=C\C=C2/CCC[C@]3(C)[C@@H]([C@H](C)CCCC(C)C)CC[C@@H]23)C[C@@H](O)C[C@@H]1O [ALFACALCIDOL] | Not Active
CCCCCC[C@H]1C(=O)O[C@H](C)[C@H](NC(=O)c2cccc(NC=O)c2O)C(=O)O[C@@H](C)[C@@H]1OC(=O)CC(C)C [ANTIMYCIN A] | Not Active
C[C@@H]1CC[C@H]2[C@@H](C)C(=O)O[C@@H]3O[C@@]4(C)CC[C@@H]1[C@]32OO4 [ARTEMISININ] | Not Active

tested on: not listed separately; assay: DRUGMATRIX: Glutamate, Kainate radioligand binding (ligand: [3H] Kainic acid); assay type: cell membranes, Rattus norvegicus, Wistar, Brain, Membrane; settings: Not Active = under 50% inhibition at 10 µM

SMILES | IC50 | Ki
Nn1nnc2ccccc21 | Not Active | Not Active
CC[C@]1(O)CC[C@H]2[C@@H]3CCC4=CCCC[C@@H]4[C@H]3CC[C@@]21C | Not Active | Not Active
N[C@@H](Cc1ccc(F)cc1)C(=O)O | Not Active | Not Active
CCOC(=O)[C@H](CCc1ccccc1)N[C@@H](C)C(=O)N1Cc2ccccc2C[C@H]1C(=O)O | Not Active | Not Active
O=C(c1ccccc1Cl)N1CCC(Cc2ccccc2)CC1 | Not Active | Not Active
CCOC(=O)[C@H](CCc1ccccc1)N[C@@H](C)C(=O)N1CCC[C@H]1C(=O)O | Not Active | Not Active
Clc1cc2c(cc1Cl)Oc1cc(Cl)c(Cl)cc1O2 [2,3,7,8-TETRACHLORODIBENZO-P-DIOXIN] | Not Active | Not Active
C=C1/C(=C\C=C2/CCC[C@]3(C)[C@@H]([C@H](C)CCCC(C)C)CC[C@@H]23)C[C@@H](O)C[C@@H]1O [ALFACALCIDOL] | Not Active | Not Active
CCCCCC[C@H]1C(=O)O[C@H](C)[C@H](NC(=O)c2cccc(NC=O)c2O)C(=O)O[C@@H](C)[C@@H]1OC(=O)CC(C)C [ANTIMYCIN A] | Not Active | Not Active
C[C@@H]1CC[C@H]2[C@@H](C)C(=O)O[C@@H]3O[C@@]4(C)CC[C@@H]1[C@]32OO4 [ARTEMISININ] | Not Active | Not Active

tested on: not listed separately; assay: DRUGMATRIX: Glutamate, NMDA, Phencyclidine radioligand binding (ligand: [3H] TCP); assay type: cell membranes, Rattus norvegicus, Wistar, Cerebral cortex, Membrane; settings: Not Active = under 50% inhibition at 10 µM

SMILES | IC50 | Ki
Nn1nnc2ccccc21 | Not Active | Not Active
CC[C@]1(O)CC[C@H]2[C@@H]3CCC4=CCCC[C@@H]4[C@H]3CC[C@@]21C | Not Active | Not Active
N[C@@H](Cc1ccc(F)cc1)C(=O)O | Not Active | Not Active
CCOC(=O)[C@H](CCc1ccccc1)N[C@@H](C)C(=O)N1Cc2ccccc2C[C@H]1C(=O)O | Not Active | Not Active
O=C(c1ccccc1Cl)N1CCC(Cc2ccccc2)CC1 | Not Active | Not Active
CCOC(=O)[C@H](CCc1ccccc1)N[C@@H](C)C(=O)N1CCC[C@H]1C(=O)O | Not Active | Not Active
Clc1cc2c(cc1Cl)Oc1cc(Cl)c(Cl)cc1O2 [2,3,7,8-TETRACHLORODIBENZO-P-DIOXIN] | Not Active | Not Active
C=C1/C(=C\C=C2/CCC[C@]3(C)[C@@H]([C@H](C)CCCC(C)C)CC[C@@H]23)C[C@@H](O)C[C@@H]1O [ALFACALCIDOL] | Not Active | Not Active
CCCCCC[C@H]1C(=O)O[C@H](C)[C@H](NC(=O)c2cccc(NC=O)c2O)C(=O)O[C@@H](C)[C@@H]1OC(=O)CC(C)C [ANTIMYCIN A] | Not Active | Not Active
C[C@@H]1CC[C@H]2[C@@H](C)C(=O)O[C@@H]3O[C@@]4(C)CC[C@@H]1[C@]32OO4 [ARTEMISININ] | Not Active | Not Active

Source: ChEMBL document CHEMBL1909046, “DrugMatrix in vitro pharmacology data”
